The source of these data is patent US20250296971A1, “GASTRIC INHIBITORY PEPTIDE RECEPTOR LIGANDS” (priority 2021, published 2025).

*1 amine or outer side, *2 acyl side, *3 side chain or, on linkers, in order; H or OH if unused. Where a SMILES comes first, the peptide text is derived from it. Bridges are numbered along the chain shown (N, C = ends). [ ]: non-standard residue; d: D form. The star is where a group is joined. X3 = O=C(O)CN1CCN(CC(=O)O)CCN(CC(=O)NCCCOCCOCCOCCCN*)CCN(CC(=O)O)CC1; Maleimide(3,4-diyl) = O=C1NC(=O)C([*:2])=C1[*:1]; Trp(5-Cl) = N[C@@H](Cc1c[nH]c2ccc(Cl)cc12)C(=O)O; Phe(3,4-Cl2) = N[C@@H](Cc1ccc(Cl)c(Cl)c1)C(=O)O; Pyridine(2,6-diCH2) = c1cc(C[*:1])nc(C[*:2])c1; Oic = O=C(O)[C@@H]1C[C@@H]2CCCC[C@@H]2N1; X23 = O=C(c1cccc(CSCCN[*:1])c1)[*:2]; Hyp = O=C(O)[C@@H]1C[C@@H](O)CN1; Suc = O=C(CCC(=O)[*:2])[*:1]; hCys = N[C@@H](CCS)C(=O)O; Thp = NC1(C(=O)O)CCOCC1; Dap = NC[C@H](N)C(=O)O; Aib = CC(C)(N)C(=O)O; Bn = c1ccc(C*)cc1; Sar = CNCC(=O)O

The test concerns the target T1, GIPR (CHO-K1-hGIPR cells) (Homo sapiens, UniProt P48546).
T1 construct: host or cells: CHO-K1
T1 sequence (P48546 22-466): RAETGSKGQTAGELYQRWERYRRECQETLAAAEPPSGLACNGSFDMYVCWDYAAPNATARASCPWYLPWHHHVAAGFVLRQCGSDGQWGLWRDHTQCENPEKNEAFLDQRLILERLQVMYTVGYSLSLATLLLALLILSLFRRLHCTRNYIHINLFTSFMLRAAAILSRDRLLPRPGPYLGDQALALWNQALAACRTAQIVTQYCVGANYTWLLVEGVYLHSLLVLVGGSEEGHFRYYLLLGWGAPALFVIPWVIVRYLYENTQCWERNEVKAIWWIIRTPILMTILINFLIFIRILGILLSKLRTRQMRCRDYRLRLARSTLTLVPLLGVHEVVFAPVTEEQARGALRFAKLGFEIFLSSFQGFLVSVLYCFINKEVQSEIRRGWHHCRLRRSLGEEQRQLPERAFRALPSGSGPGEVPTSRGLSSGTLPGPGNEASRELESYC
Put plainly: FACS binding assay. The note with it: competition with 20 nM GIP-057, 4° C. for 1 hour, read-out: pIC50 Category (converted). In a few lines: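 Peptide binding read by flow cytometry as APC-channel median fluorescence, fitted with a four-parameter logistic to yield EC50 or IC50. Cells were hGIPR-transfected CHO-K1 in PBS with 1% FCS, detected with 1 μg/mL APC-streptavidin, 30 min on ice.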
As for `CC(=O)N[C@@H](CC(=O)O)C(=O)N[C@@H](Cc1c[nH]c2ccccc12)C(=O)N[C@@H](Cc1c[nH]c2ccc(Cl)cc12)C(=O)N1C[C@H](O)C[C@H]1C(=O)N[C@@H](CCC(=O)O)C(=O)N[C@H](CC(C)C)C(=O)N[C@H]1CSCc2cccc(n2)CSC[C@@H](C(N)=O)NC(=O)[C@H](Cc2c[nH]c3ccccc23)NC(=O)[C@H](CC(C)C)NC(=O)C2(CCOCC2)NC1=O` [GIP-355, Ac-Asp-Trp-5Clw-Hyp-Glu-leu-[Cys(2Lut)-Thp-Leu-Trp-Cys]-NH2] (Ac-DW[Trp(5-Cl)][Hyp]E[dL]C[Thp]LWC-NH2; linker 7-11 via Pyridine(2,6-diCH2)), the IC50 was above 1000 nM.

As to `CC[C@H](C)[C@@H]1NC(=O)[C@H](CC(C)C)NC(=O)C2(CCOCC2)NC(=O)[C@@H](NC(=O)[C@@H](CC(C)C)NC(=O)[C@H](CCC(=O)O)NC(=O)[C@@H]2C[C@@H]3CCCC[C@@H]3N2C(=O)[C@H](Cc2ccc(Cl)c(Cl)c2)NC(=O)[C@H](Cc2ccc(Cl)c(Cl)c2)NC(=O)[C@H](CC(=O)O)NC(C)=O)CSCc2cccc(n2)CSC[C@@H](C(N)=O)NC1=O` [GIP-356, Ac-Asp-Eaa-Eaa-Oic-Glu-leu-[Cys(2Lut)-Thp-Leu-Ile-Cys]-NH2] (Ac-D[Phe(3,4-Cl2)][Phe(3,4-Cl2)][Oic]E[dL]C[Thp]LIC-NH2; linker 7-11 via Pyridine(2,6-diCH2)), the IC50 is above 1000 nM.

Take `CC[C@H](C)[C@@H]1NC(=O)[C@H](CC(C)C)NC(=O)C2(CCOCC2)NC(=O)[C@@H](NC(=O)[C@@H](CC(C)C)NC(=O)[C@H](CCC(=O)O)NC(=O)CN(C)C(=O)[C@H](Cc2ccc(Cl)c(Cl)c2)NC(=O)[C@H](Cc2ccc(Cl)c(Cl)c2)NC(=O)[C@H](CC(=O)O)NC(C)=O)CSCc2cccc(n2)CSC[C@@H](C(N)=O)NC1=O` [GIP-357, Ac-Asp-Eaa-Eaa-Nmg-Glu-leu-[Cys(2Lut)-Thp-Leu-Ile-Cys]-NH2] (Ac-D[Phe(3,4-Cl2)][Phe(3,4-Cl2)][Sar]E[dL]C[Thp]LIC-NH2; linker 7-11 via Pyridine(2,6-diCH2)): the IC50 was above 1000 nM.

On to `CC[C@H](C)[C@@H]1NC(=O)[C@H](CC(C)C)NC(=O)C(C)(C)NC(=O)[C@@H](NC(=O)[C@@H](CC(C)C)NC(=O)[C@H](CCC(=O)O)NC(=O)[C@@H]2CCCN2C(=O)[C@H](Cc2c[nH]c3ccc(Cl)cc23)NC(=O)[C@H](Cc2c[nH]c3ccccc23)NC(=O)[C@H](CC(=O)O)NC(=O)CCC(=O)NCCCOCCOCCOCCCNC(=O)CN2CCN(CC(=O)O)CCN(CC(=O)O)CCN(CC(=O)O)CC2)CNC(=O)c2cccc(c2)CSCCNC1=O` [GIP-358, DOTA-Ttds-Asp-Trp-5Clw-Pro-Glu-leu-[Dap(3MeBz)-Aib-Leu-Ile-AET]] ({X3-Suc}-DW[Trp(5-Cl)]PE[dL][Dap][Aib]LI[X23]; lactam 7-C), for which the IC50 was below 10 nM.

In the case of `CC[C@H](C)[C@@H]1NC(=O)[C@H](CC(C)C)NC(=O)C2(CCOCC2)NC(=O)[C@@H](NC(=O)[C@@H](CC(C)C)NC(=O)[C@H](CCC(=O)O)NC(=O)[C@@H]2C[C@@H](O)CN2C(=O)[C@H](Cc2c[nH]c3ccc(Cl)cc23)NC(=O)[C@H](Cc2c[nH]c3ccccc23)NC(=O)[C@H](CC(=O)O)NC(C)=O)CSC2=C(SC[C@@H](C(N)=O)NC1=O)C(=O)NC2=O` [GIP-360, Ac-Asp-Trp-5Clw-Hyp-Glu-leu-[Cys(mli)-Thp-Leu-Ile-Cys]-NH2] (Ac-DW[Trp(5-Cl)][Hyp]E[dL]C[Thp]LIC-NH2; linker 7-11 via Maleimide(3,4-diyl)), the IC50 is below 10 nM.

On to `CC[C@H](C)[C@@H]1NC(=O)[C@H](CC(C)C)NC(=O)C2(CCOCC2)NC(=O)[C@@H](NC(=O)[C@@H](CC(C)C)NC(=O)[C@H](CCC(=O)O)NC(=O)[C@@H]2C[C@@H](O)CN2C(=O)[C@H](Cc2c[nH]c3ccc(Cl)cc23)NC(=O)[C@H](Cc2c[nH]c3ccccc23)NC(=O)[C@H](CC(=O)O)NC(C)=O)CSC2=C(SCC[C@@H](C(N)=O)NC1=O)C(=O)NC2=O` [GIP-361, Ac-Asp-Trp-5Clw-Hyp-Glu-leu-[Cys(mli)-Thp-Leu-Ile-Hcy]-NH2] (Ac-DW[Trp(5-Cl)][Hyp]E[dL]C[Thp]LI[hCys]-NH2; linker 7-11 via Maleimide(3,4-diyl)), for which the IC50 is below 10 nM.

In the case of `CC[C@H](C)[C@@H]1NC(=O)[C@H](CC(C)C)NC(=O)C2(CCOCC2)NC(=O)[C@@H](NC(=O)[C@@H](CC(C)C)NC(=O)[C@H](CCC(=O)O)NC(=O)[C@@H]2C[C@@H](O)CN2C(=O)[C@H](Cc2c[nH]c3ccc(Cl)cc23)NC(=O)[C@H](Cc2c[nH]c3ccccc23)NC(=O)[C@H](CC(=O)O)NC(C)=O)CCSC2=C(SC[C@@H](C(N)=O)NC1=O)C(=O)NC2=O` [GIP-362, Ac-Asp-Trp-5Clw-Hyp-Glu-leu-[Hcy(mli)-Thp-Leu-Ile-Cys]-NH2] (Ac-DW[Trp(5-Cl)][Hyp]E[dL][hCys][Thp]LIC-NH2; linker 7-11 via Maleimide(3,4-diyl)), the IC50 is 10 to 79.4 nM.

On to `CC[C@H](C)[C@@H]1NC(=O)[C@H](CC(C)C)NC(=O)C2(CCOCC2)NC(=O)[C@@H](NC(=O)[C@@H](CC(C)C)NC(=O)[C@H](CCC(=O)O)NC(=O)[C@@H]2C[C@@H](O)CN2C(=O)[C@H](Cc2c[nH]c3ccc(Cl)cc23)NC(=O)[C@H](Cc2c[nH]c3ccccc23)NC(=O)[C@H](CC(=O)O)NC(C)=O)CCSSCC[C@@H](C(N)=O)NC1=O` [GIP-363, Ac-Asp-Trp-5Clw-Hyp-Glu-leu-[Hey-Thp-Leu-Ile-Hcy]-NH2] (Ac-DW[Trp(5-Cl)][Hyp]E[dL][hCys][Thp]LI[hCys]-NH2; disulfide 7-11), for which the IC50 was 10 to 79.4 nM.

As to `CC[C@H](C)[C@@H]1NC(=O)[C@H](CC(C)C)NC(=O)C2(CCOCC2)NC(=O)[C@@H](NC(=O)[C@@H](CC(C)C)NC(=O)[C@H](CCC(=O)O)NC(=O)[C@@H]2C[C@@H](O)CN2C(=O)[C@H](Cc2c[nH]c3ccc(Cl)cc23)NC(=O)[C@H](Cc2c[nH]c3ccccc23)NC(=O)[C@H](CC(=O)O)NC(C)=O)CSSC[C@@H](C(N)=O)NC1=O` [GIP-364, Ac-Asp-Trp-5Clw-Hyp-Glu-leu-[Cys-Thp-Leu-Ile-Cys]-NH2] (Ac-DW[Trp(5-Cl)][Hyp]E[dL]C[Thp]LIC-NH2; disulfide 7-11), the IC50 is 100 to 794 nM.

On to `CC[C@H](C)[C@H](NC(=O)[C@H](CC(C)C)NC(=O)[C@H](C)NC(=O)[C@H](CSCc1ccccc1)NC(=O)[C@H](CC(C)C)NC(=O)[C@H](CCC(=O)O)NC(=O)[C@@H]1CCCN1C(=O)[C@H](Cc1c[nH]c2ccccc12)NC(=O)[C@H](Cc1c[nH]c2ccccc12)NC(=O)[C@H](CC(=O)O)NC(=O)[C@H](Cc1ccc(O)cc1)NC(=O)[C@@H](N)CCSC)C(=O)N[C@@H](CSC)C(N)=O` [GIP-368] (H-MYDWWPELC(Bn)ALIC(Me)-NH2), for which the IC50 is 100 to 794 nM.

Turning to `CC[C@H](C)[C@H](NC(=O)[C@H](CC(C)C)NC(=O)[C@H](C)NC(=O)[C@H](CSC)NC(=O)[C@H](CC(C)C)NC(=O)[C@H](CCC(=O)O)NC(=O)[C@@H]1CCCN1C(=O)[C@H](Cc1c[nH]c2ccccc12)NC(=O)[C@H](Cc1c[nH]c2ccccc12)NC(=O)[C@H](CC(=O)O)NC(=O)[C@H](Cc1ccc(O)cc1)NC(=O)[C@@H](N)CCSC)C(=O)N[C@@H](CSCc1ccccc1)C(N)=O` [GIP-369] (H-MYDWWPELC(Me)ALIC(Bn)-NH2), the IC50 was above 1000 nM.
